Measured values as given in US7736848B2, “Cellular targets for treatment of retroviral infection” (Fox Chase Cancer Center, priority 2002, dated 2010).

Tests used:
HIV-1-based vector [1] = assay: HIV-1 vector transduction of dividing and nocodazole-arrested 293T cells; type: cell-based
Experimental: To arrest cells in M phase, cells were treated with nocodazole (1 μg/ml) for 24 hrs prior to addition of the virus. Nocodazole was maintained in the cell culture medium during and after infection. Cells were distributed in a 24-well plate at a density of 5×10^4 cells per well and nocodazole was added to a final concentration of 1 μg/ml. […] Two days post-infection, cells were stained using a β-galactosidase assay (Stratagene according to manufacturer's protocol) and blue cells counted.

ATM kinase = ATM kinase (Homo sapiens, UniProt Q13315); settings: in vitro; read-out: IC50 for ATM kinase inhibition; cited from earlier work
ATR kinase = ATR kinase (Homo sapiens, UniProt Q13535); settings: in vitro; read-out: IC50 for ATR kinase inhibition; cited from earlier work
Chain of ATR kinase (Q13535 whole entry): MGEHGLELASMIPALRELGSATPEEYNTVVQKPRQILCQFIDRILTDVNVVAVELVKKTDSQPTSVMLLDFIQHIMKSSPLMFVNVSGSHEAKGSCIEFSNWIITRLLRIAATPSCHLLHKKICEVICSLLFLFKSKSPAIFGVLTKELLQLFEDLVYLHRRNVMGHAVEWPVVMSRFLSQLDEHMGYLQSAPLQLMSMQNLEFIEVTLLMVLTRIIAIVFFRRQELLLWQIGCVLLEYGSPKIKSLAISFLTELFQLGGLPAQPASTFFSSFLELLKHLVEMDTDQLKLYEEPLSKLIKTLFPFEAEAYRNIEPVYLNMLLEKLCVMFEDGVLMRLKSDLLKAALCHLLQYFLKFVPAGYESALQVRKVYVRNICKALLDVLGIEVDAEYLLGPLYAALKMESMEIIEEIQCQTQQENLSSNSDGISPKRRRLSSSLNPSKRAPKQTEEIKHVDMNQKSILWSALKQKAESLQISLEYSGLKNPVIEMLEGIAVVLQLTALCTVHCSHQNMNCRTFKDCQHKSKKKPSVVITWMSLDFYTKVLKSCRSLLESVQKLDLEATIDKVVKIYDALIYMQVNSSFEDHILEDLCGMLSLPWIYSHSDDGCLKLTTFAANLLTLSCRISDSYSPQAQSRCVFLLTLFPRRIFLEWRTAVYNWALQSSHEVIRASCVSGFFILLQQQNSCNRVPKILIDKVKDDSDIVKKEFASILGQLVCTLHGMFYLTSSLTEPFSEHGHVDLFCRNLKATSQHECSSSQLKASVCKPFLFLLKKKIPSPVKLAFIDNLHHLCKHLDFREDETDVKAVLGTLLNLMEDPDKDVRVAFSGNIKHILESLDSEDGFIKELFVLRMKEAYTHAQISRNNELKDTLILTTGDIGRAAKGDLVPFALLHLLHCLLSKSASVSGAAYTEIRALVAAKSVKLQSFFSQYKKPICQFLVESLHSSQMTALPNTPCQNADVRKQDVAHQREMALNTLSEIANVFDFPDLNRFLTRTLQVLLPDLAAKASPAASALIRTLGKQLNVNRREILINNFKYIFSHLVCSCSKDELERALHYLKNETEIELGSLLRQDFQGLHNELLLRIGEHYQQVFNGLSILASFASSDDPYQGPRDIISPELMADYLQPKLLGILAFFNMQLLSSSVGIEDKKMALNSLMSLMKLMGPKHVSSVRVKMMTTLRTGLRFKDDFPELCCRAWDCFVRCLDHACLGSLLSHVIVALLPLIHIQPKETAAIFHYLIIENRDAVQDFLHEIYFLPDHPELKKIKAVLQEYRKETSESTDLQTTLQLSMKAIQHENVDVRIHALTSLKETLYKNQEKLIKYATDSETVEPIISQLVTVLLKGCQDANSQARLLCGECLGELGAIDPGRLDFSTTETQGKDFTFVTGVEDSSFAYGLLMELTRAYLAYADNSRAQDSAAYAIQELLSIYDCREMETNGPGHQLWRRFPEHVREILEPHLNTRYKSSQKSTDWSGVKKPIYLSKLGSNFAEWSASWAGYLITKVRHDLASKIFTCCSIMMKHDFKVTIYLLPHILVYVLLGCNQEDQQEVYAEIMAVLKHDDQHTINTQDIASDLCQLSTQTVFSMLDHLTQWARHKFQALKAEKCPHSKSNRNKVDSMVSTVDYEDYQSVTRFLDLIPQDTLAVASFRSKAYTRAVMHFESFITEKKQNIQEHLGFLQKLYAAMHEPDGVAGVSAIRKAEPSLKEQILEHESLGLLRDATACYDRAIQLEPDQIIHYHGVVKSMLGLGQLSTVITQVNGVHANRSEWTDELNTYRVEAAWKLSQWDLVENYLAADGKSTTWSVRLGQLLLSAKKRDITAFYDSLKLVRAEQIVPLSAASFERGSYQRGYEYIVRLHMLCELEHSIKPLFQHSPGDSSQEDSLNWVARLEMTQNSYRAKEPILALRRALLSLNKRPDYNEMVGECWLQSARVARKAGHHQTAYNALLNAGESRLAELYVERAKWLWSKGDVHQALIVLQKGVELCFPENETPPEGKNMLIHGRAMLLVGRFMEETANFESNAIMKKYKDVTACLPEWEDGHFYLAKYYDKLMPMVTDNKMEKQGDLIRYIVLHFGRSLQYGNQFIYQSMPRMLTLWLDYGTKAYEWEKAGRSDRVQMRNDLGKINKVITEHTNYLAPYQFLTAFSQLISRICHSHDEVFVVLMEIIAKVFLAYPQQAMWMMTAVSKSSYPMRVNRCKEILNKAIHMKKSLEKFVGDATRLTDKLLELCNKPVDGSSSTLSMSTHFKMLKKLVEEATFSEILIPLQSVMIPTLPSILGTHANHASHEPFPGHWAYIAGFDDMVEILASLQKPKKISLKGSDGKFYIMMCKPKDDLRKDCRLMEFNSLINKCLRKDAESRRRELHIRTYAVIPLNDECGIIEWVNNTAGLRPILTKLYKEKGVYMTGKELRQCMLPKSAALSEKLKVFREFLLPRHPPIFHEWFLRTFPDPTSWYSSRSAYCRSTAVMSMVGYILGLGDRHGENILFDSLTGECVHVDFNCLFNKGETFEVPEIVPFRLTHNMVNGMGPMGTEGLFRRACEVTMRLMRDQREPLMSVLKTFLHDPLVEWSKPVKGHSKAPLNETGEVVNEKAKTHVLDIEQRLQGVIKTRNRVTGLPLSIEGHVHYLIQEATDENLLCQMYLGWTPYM
Chain of ATR kinase (Q8WXE1 whole entry partner): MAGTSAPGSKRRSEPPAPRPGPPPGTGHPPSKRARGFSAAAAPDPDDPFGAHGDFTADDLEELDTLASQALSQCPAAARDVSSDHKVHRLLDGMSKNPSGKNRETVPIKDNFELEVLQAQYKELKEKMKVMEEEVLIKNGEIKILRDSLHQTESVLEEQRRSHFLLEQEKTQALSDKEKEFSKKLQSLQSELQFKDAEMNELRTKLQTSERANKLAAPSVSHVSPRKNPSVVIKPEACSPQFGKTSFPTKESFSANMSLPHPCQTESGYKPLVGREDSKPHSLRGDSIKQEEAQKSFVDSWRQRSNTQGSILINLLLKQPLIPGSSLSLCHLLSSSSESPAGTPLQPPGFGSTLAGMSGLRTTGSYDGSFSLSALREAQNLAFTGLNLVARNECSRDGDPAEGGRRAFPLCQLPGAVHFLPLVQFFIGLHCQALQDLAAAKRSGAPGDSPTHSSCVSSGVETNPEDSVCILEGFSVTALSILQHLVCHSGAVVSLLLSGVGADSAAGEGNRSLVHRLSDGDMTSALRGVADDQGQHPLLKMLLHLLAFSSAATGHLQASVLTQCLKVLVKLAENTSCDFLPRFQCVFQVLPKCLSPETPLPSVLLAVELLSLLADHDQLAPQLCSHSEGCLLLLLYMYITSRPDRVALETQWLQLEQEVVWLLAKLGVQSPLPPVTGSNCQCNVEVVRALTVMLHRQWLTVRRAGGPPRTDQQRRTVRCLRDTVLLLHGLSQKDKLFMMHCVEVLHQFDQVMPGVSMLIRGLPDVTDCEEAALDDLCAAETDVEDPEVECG

[2] = test system: primary human macrophages; assay: Cytotoxicity in primary human macrophages; settings: conditions of the transduction test
HIV-1 strain NL4-3 = assay: 2-LTR DNA junctions (nuclear import) in NL4-3-infected PBMCs; type: cell-based; settings: 24 hours post-infection
From the text: To determine if methylxanthines altered the nuclear import of HIV-1 pre-integration complexes (PICs), we analyzed the level of 2-LTR DNA junctions in infected cells by a quantitative DNA-PCR technique. […] To normalize the cell number, the human beta-globin gene was used as a standard (Nunnari et al., 2002, supra; Otero et al., 2003, supra).

[3] = test system: neomycin phosphotransferase II; assay: Expression of neo reporter in stably transduced HeLa cells (Western blot); type: cell-based; settings: 24 hr, up to 4 mM caffeine
Experimental: Western Blot Analyses. […] Cells were then harvested, lysed, and lysates were subjected to electrophoresis in a 10% SDS polyacrylamide gel. The separated proteins were then transferred to a PVDF membrane and the filter was treated with neomycin phosphotransferase II antibody (Upstate Biotech). Bands were detected using a chemi-luminiscence assay.

ASV vector [4] = assay: organism not typed; type: cell-based; settings: HeLa, 24 h, read-out: inhibition of integration (host-viral junction DNA)
293T cells = assay: Cytotoxicity in 293T cells; settings: conditions of the transduction test
mTOR = mTOR (Homo sapiens, UniProt P42345); settings: cited from earlier work
DNA-PK = DNA-PK (Homo sapiens, UniProt P78527); settings: cited from earlier work
ASV vector [5] = assay: Nuclear import: LTR-LTR circle junctions in ASV-infected HeLa cells; type: cell-based
HIV-1-based vector [6] = assay: HIV-1 vector transduction of terminally differentiated primary macrophages; type: cell-based; settings: caffeine 24 hrs
Experimental: Human peripheral blood mononuclear cells (PBMC) were isolated by centrifugation in Ficoll-Hypaque (Sigma, St. Louis, Mo., USA) from buffy coats of HIV-1 seronegative individuals. Monocyte-derived macrophages (MDM) were obtained from PBMC by adherence to plastic for 12 hours in DMEM supplemented with 10% human serum (Cellgro, Herndon, Va., USA), washed, and cultured in the same medium in the presence of macrophage colony-stimulating factor (MCSF, 2 ng/ml; Sigma, St. Louis, Mo., USA) for another 7-10 days, allowing cells to differentiate before infection. The medium was replaced twice during the incubation period. The primary cells were kept at 37° C. in a humidified incubator with 5% CO2.

ASV vector [7] = assay: Viral DNA synthesis in ASV-infected HeLa cells (real time PCR); type: cell-based; settings: up to 4 mM; 24 hr post-infection
Experimental: Real Time PCR. Extrachromosomal DNA from infected and uninfected cells was prepared by HIRT extraction. Real-Time PCR amplification, data-acquisition and analysis were preformed with the Cephid Smart Cycler. The Biochemistry and Biotechnology Facility at the Fox Chase Cancer Center prepared the primers using BHQ-1 non-fluorogenic quencher (Biosearch Technologies). Viral sequence primers directed against ASV pol were selected using Primer Express™ (Applied Biosystems) and had the following sequences: Forward primer, 5′-[…]-3′ (SEQ ID NO:1); Reverse primer, 5′-[…]-3′ (SEQ ID NO:2); Probe, 5′-(FAM) CC […] (BHQ)-3′ (SEQ ID NO:3). Results were normalized with those from primers against mitochondrial DNA (Asaad et al., Oncogene 19: 5788-5800, 2000). Each reaction contained 1× Reaction Buffer (20 mM Tris-HCl, pH 8.4), 50 mM KCl), 0.25 mM each dNTP, 2.5 mM MgCl2, 400 nM primers, 200 nM probe and 2.5 U Platinum Taq Polymerase (Invitrogen). Relative quantitation was calculated with the Comparative Cycle Threshold Method using the untreated samples as the reference (User, B. ABI Prism 7700 Sequence Detection System; the Perkin Elmer Corporation, P/N 4303859 Rev. A. Stock No. 77802-001, 1997). […] Relative quantitation was averaged and standard deviations were determined between independent experiments.
Synthesis of viral DNA was detected by quantitative PCR.

HIV-1 integrase = molecular target: T1, HIV-1 integrase (Human immunodeficiency virus type 1 group M subtype B, UniProt P04585); assay: In vitro integrase activity, HIV-1 integrase; type: biochemical; settings: up to 10 mM
T1 construct: For HIV-1 integrase, reactions contained 1.0 M HIV IN
Experimental: For HIV-1 integrase, reactions contained […] HIV IN, 1.0 μM U5 21/21 substrate (Katz & Skalka, Ann. Rev. Biochem. 63: 133-173, 1994; Coffin et al., Retroviruses, Cold Spring Harbor Laboratory, 1997) in 22 mM Hepes, pH 7.5, 5.1 mM DTT, 6% glycerol, 6.66% DMSO, 50 mM KCl and 10 mM MnCl2. Conditions were as described for ASV IN, except that the final incubation time was 60 min.

HIV-1-based vector [8] = assay: Stable transduction of HeLa cells by HIV-1-lacZ vector; type: cell-based; settings: Human immunodeficiency virus 1, HeLa, read-out: IC50, reduction in number of cells stably transduced by HIV-1 vector
Experimental: (§1) Infection of HeLa Cells. […] The virus-containing medium was then replaced with fresh medium. Two to seven days after infection with the HIV-1 vector (as indicated) cells were stained using a β-galactosidase assay (Stratagene). Cells were selected for G418 resistance one day after infection with the ASV vector by addition of 1 mg/ml G418.
(§2) After infection with ASV, G418 was also added at this time.
Transduction was measured five to six days later by the presence of β-galactosidase positive colonies.

PBMC = settings: at the utilized concentration (4 mM)
ASV-based vector = assay: Stable transduction of HeLa cells by ASV neo vector; type: cell-based; settings: 24 h, read-out: IC50, reduction in number of cells stably transduced by ASV vector
Experimental: as §1, §2

HIV-1 NL4-3 (X4) strain = assay: HIV-1 NL4-3 replication in PBMCs (p24 antigen ELISA); type: cell-based; settings: 4 mM; for drop in HIV-1 p24 antigen levels: 7 days post-infection; for p24 antigen levels vs control: 12 days post-infection; for decrease in HIV-1 p24 antigen vs NL4-3 infected control: day 3 post-infection; for inhibition of NL4-3 growth: p24 at 6 days post-infection
HIV-1-based vector [9] = assay: Transduction of parental GM847 cells treated with doxycycline; type: cell-based
From the text: To examine the role of ATR more directly, the inventors examined the efficiency of retroviral DNA integration and transduction in cells defective in ATR function. […] Cells that synthesize the dominant-negative ATRkd protein (doxycycline-inducible expression) are viable, but show deficiencies in DNA repair that are distinct from those in cells deficient in ATM.
Because ATR was also implicated in the regulation of Vpr-induced G2/M arrest, transduction of ATRkd-expressing cells by the multiply attenuated HIV-1-based vector was also evaluated.

[10] = test system: macrophage-tropic (R5) HIV-1 strain, ADA; assay: HIV-1 ADA replication in PBMCs (p24 antigen); type: cell-based; settings: Human immunodeficiency virus 1, PBMC, p24 at 6 days post-infection
[11] = test system: retroviral transduction of HeLa cells; assay: Retroviral transduction of HeLa cells treated with mTOR inhibitor
From the text: To determine if mTOR is involved in retroviral transduction, the inventors infected HeLa cells and treated them with the mTOR-specific inhibitor, rapamycin.

PCNA [12] = assay: PCNA Western blot in nocodazole-treated GM847/ATRkd cells; type: cell-based, human; settings: nocodazole 1 μg/ml
Experimental: GM847/ATRkd cells were plated at a density of 2×10^4 cells per well of 24-well plate, in the presence or absence of doxycycline (5 μg/ml) and nocodazole (1 μg/ml).
To examine the role of ATR in growth-arrested cells, the GM847/ATRkd cells were treated with nocodazole in addition to doxycycline.

PCNA [13] = assay: PCNA Western blot in nocodazole-treated 293T cells; type: cell-based; settings: nocodazole 1 μg/ml, 24 hrs
Experimental: To determine the efficiency of the nocodazole arrest, cells were assayed for expression of the proliferating-cell nuclear antigen (PCNA) by Western blotting with an anti-PCNA antibody. PCNA accumulates in cells as they enter S phase, but is rapidly degraded in other phases of the cell cycle. (Takase, K et al. Reversible G1 arrest induced by dimethyl sulfoxide in human lymphoid cell lines: kinetics of the arrest and expression of the cell cycle marker proliferating cell nuclear antigen in Raji cells. Cell Growth Differ 1992, 3:515-521).

[14] = cited from earlier work
[15] = test system: BRCA1 phosphorylated on serine 1423; assay: BRCA1 serine 1423 phosphorylation in PBMCs (Western blot); type: cell-based, human
From the text: (§3) To establish if HIV-1 infection triggers the DNA damage response that is controlled by these kinases, human PBMCs were infected with the HIV-1 NL4-3 strain and analyzed by Western blotting to determine the levels of phosphorylation by ATM and ATR in these cells. Western blotting was sequentially performed with an anti pBRCA1 (Bethyl Laboratories, Montgomery, Tex., cat # A300-008A) or an anti-Ku86 antibody (Santa Cruz, sc-9034, Santa Cruz, Calif.). For detection of the p53 phosphorylated on serine 15 residue, Western blotting was performed with a rabbit polyclonal antibody from Cell Signaling Technology, Beverly, Mass. (cat # 9284S).

[16] = test system: p53 phosphorylated on serine 15; assay: p53 serine 15 phosphorylation in NL4-3-infected PBMCs (Western blot); type: cell-based, human; settings: 24 hrs
From the text: as §3

Cn1c(=O)c2c(ncn2C)n(C)c1=O [caffeine, 1,3,7-trimethylxanthine]
transduction by multiply attenuated HIV-1-based vector (lacking vpr, vif, vpu, nef) (HIV-1-based vector [1]; 293T cells, dividing and nocodazole-arrested): inhibited
HIV-transduction of dividing cells (HIV-1-based vector [1]; exponentially dividing 293T cells, caffeine 24 h, dose-dependent): inhibited
HIV-transduction of nocodazole-arrested cells (HIV-1-based vector [1]; nocodazole-arrested 293T cells, caffeine 24 h, dose-dependent): inhibited
IC50 (ATM kinase): 1 to 2 mM
IC50 (ATR kinase): 1 to 2 mM
cytotoxicity [2]: no visible cytotoxicity
level of 2-LTR junctions (HIV-1 strain NL4-3): No significant inhibitory effect
amount of reporter protein (neomycin phosphotransferase) [3]: no reduction
inhibition at 4000 µM (ASV vector [4]): 88%
cytotoxicity (293T cells): No caffeine cytotoxicity
inhibition of mTOR in vitro (mTOR): inhibits
sensitivity of DNA-PK to caffeine (DNA-PK): not sensitive
formation of circle junctions (ASV vector [5]; 2 mM caffeine): not significantly affected
formation of circle junctions (ASV vector [5]; 4 mM caffeine): only a modest decrease
transduction of terminally differentiated primary human macrophages (HIV-1-based vector [6]): inhibit
effect on amount of viral DNA detected (ASV vector [7]): only a modest effect
processing activity of HIV-1 integrase (HIV-1 integrase): unaffected
IC50 (HIV-1-based vector [8]): ~1.5 mM
cellular cytotoxicity (XTT assay) (PBMC): did not show any significant cellular cytotoxicity
IC50 (ASV-based vector): ~800 µM
drop in HIV-1 p24 antigen levels (HIV-1 NL4-3 (X4) strain): three
p24 antigen levels vs control (HIV-1 NL4-3 (X4) strain): reached the control level
decrease in HIV-1 p24 antigen vs NL4-3 infected control (HIV-1 NL4-3 (X4) strain): 9 fold
inhibition of NL4-3 growth (HIV-1 NL4-3 (X4) strain): approximately 9 fold

C[C@H]1c2cccc(O)c2C(=O)C2=C(O)[C@]3(O)C(=O)C(C(N)=O)=C(O)[C@@H](N(C)C)[C@@H]3[C@@H](O)[C@@H]21 [doxycycline]
effect on transduction of parental cells (HIV-1-based vector [9]): no effect

Cn1cnc2c1c(=O)[nH]c(=O)n2C [theobromine, 3,7-dimethylxanthine]
IC50 [10]: ~100 µM
inhibition of NL4-3 growth (HIV-1 NL4-3 (X4) strain): ~2 fold

CO[C@H]1C[C@@H]2CC[C@@H](C)[C@@](O)(O2)C(=O)C(=O)N2CCCC[C@H]2C(=O)O[C@H]([C@H](C)C[C@@H]2CC[C@@H](O)[C@H](OC)C2)CC(=O)[C@H](C)/C=C(\C)[C@@H](O)[C@@H](OC)C(=O)[C@H](C)C[C@H](C)/C=C/C=C/C=C/1C [rapamycin]
effect on retroviral transduction [11]: no effect

COC(=O)Nc1nc2ccc(C(=O)c3cccs3)cc2[nH]1 [nocodazole]
amount of PCNA relative to exponentially dividing cells (PCNA [12]): 10-20%
amount of PCNA relative to exponentially dividing cells (PCNA [13]): ≤ 5%

Cn1c(=O)c2[nH]cnc2n(C)c1=O [theophylline, 1,3-dimethylxanthine]
concentration reached in plasma of theophylline-treated patients [14]: 28 to 110 µM
IC50 [10]: ~60 µM
BRCA1 phosphorylation (serine 1423) ([15]; NL4-3-infected PBMCs, 24 hrs): suppressed
basal phosphorylation of BRCA1 on serine 1423 ([15]; PBMCs, basal): failed to suppress
cellular cytotoxicity (XTT assay) (PBMC): did not show any significant cellular cytotoxicity
p53 phosphorylation (serine 15) [16]: suppressed
drop in HIV-1 p24 antigen levels (HIV-1 NL4-3 (X4) strain): four-fold
p24 antigen levels vs control (HIV-1 NL4-3 (X4) strain): reached the control level
decrease in HIV-1 p24 antigen vs NL4-3 infected control (HIV-1 NL4-3 (X4) strain): 9 fold
inhibition of NL4-3 growth (HIV-1 NL4-3 (X4) strain): ~5 fold
